The values below come from patent publication US12018021B2 (UCB Biopharma SRL, priority 2018, dated 2024).

The target in the assay is IgE-Tb / sFcεRIα-Y131A-AF488 (Homo sapiens, UniProt P01854, N146Q/N252Q). The assay can be described thus: IgE-Tb / sFcεRIα-Y131A-AF488 FRET assay (protocol for examples 234 to 501). Particulars: examples 234 to 501: compound with IgE-Tb 30 minutes before sFcεRIα-Y131A-AF488, incubated 18 hours at room temperature; read-out: Y131A FRET IC50 range. The format is binding. The method, boiled down: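 Compounds (10-point 3-fold series, top usually 10 μM, 2% DMSO) preincubated 30 min with 5 nM IgE-Tb, then 25 nM sFcεRIα-Y131A-AF488 added; 18 h at room temperature in the dark. TR-FRET ratio 520/490 nm after 337 nm excitation, background-subtracted; IC50 by four-parameter logistic fit.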
Sequence of IgE-Tb / sFcεRIα-Y131A-AF488 (P01854 whole entry N146Q/N252Q): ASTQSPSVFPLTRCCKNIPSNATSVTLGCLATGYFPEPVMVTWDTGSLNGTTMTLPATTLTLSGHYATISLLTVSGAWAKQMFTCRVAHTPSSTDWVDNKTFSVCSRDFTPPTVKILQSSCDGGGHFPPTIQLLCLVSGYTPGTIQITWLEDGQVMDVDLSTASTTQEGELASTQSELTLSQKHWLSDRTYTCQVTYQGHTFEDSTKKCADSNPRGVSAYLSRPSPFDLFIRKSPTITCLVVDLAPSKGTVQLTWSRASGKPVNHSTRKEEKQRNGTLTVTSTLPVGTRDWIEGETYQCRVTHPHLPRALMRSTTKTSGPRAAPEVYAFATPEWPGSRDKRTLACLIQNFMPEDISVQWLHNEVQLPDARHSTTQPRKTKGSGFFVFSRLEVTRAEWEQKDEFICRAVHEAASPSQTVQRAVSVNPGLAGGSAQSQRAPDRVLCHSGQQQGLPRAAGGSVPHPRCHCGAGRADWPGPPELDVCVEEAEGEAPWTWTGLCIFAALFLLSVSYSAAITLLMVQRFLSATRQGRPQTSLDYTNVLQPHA

With `Cn1nc(C(F)(F)F)cc1Nc1nncn1[C@H]1CCc2sc(NC(=O)[C@H]3C[C@H]3F)c(C(=O)NC[C@H]3C[C@H]3F)c2C1` [Example 399, (5S)-2-[[(1R,2R)-2-fluorocyclopropanecarbonyl]amino]-N-[[(1R,2R)-2-fluorocyclopropyl]methyl]-5-[3-[[2-methyl-5-(trifluoromethyl)pyrazol-3-yl]amino]-1,2,4-triazol-4-yl]-4,5,6,7-tetrahydro-1-benzothiophene-3-carboxamide], the IC50 was under 1000 nM. Regarding `Cn1nc(C(F)(F)F)cc1Nc1nncn1[C@H]1CCc2sc(NC(=O)[C@@H]3C[C@@H]3F)c(C(=O)NCC3CC3)c2C1` [Example 401], the 50% inhibitory concentration (IC50) was under 1000 nM.

`Cn1nc(C(F)(F)F)cc1Nc1nncn1[C@H]1CCc2sc(NC(=O)[C@H]3C[C@H]3F)c(C(=O)N[C@H]3C[C@H](F)C3)c2C1` [Example 402, (5S)—N-(trans-3-fluorocyclobutyl)-2-[[(1R,2R)-2-fluorocyclopropanecarbonyl]amino]-5-[3-[[2-methyl-5-(trifluoromethyl)pyrazol-3-yl]amino]-1,2,4-triazol-4-yl]-4,5,6,7-tetrahydro-1-benzothiophene-3-carboxamide]: the half-inhibitory concentration (IC50) was under 1000 nM. As to `[2H]C([2H])([2H])n1nc(C(F)F)cc1Nc1nncn1[C@H]1CCc2sc(NC(=O)C3CC3)c(C(=O)NCC3CC3)c2C1` [Example 403, (5S)-2-(cyclopropanecarbonylamino)-N-(cyclopropylmethyl)-5-[3-[[5-(difluoromethyl)-2-(trideuteriomethyl)pyrazol-3-yl]amino]-1,2,4-triazol-4-yl]-4,5,6,7-tetrahydrobenzothiophene-3-carboxamide], the IC50 was under 1000 nM. Turning to `Cn1nc(C(F)F)cc1Nc1nncn1[C@H]1CCc2sc(NC(=O)[C@H]3CC34CC4)c(C(=O)NC[C@H]3C[C@H](F)C3)c2C1` [Example 404, (5S)-5-[3-[[5-(Difluoromethyl)-2-methylpyrazol-3-yl]amino]-1,2,4-triazol-4-yl]-N-[trans-(3-fluorocyclobutyl)methyl]-2-[[(2S)-spiro[2.2]pentane-2-carbonyl]amino]-4,5,6,7-tetrahydro-1-benzothiophene-3-carboxamide], the IC50 was under 1000 nM. `Cn1nc(C(F)F)cc1Nc1nncn1[C@H]1CCc2sc(NC(=O)[C@H]3CC34CC4)c(C(=O)N[C@H]3C[C@H](F)C3)c2C1` [Example 405, (5S)-5-[3-[[5-(Difluoromethyl)-2-methylpyrazol-3-yl]amino]-1,2,4-triazol-4-yl]-N-(trans-3-fluorocyclobutyl)-2-[[(2S)-spiro[2.2]pentane-2-carbonyl]amino]-4,5,6,7-tetrahydro-1-benzothiophene-3-carboxamide]: the IC50 is under 1000 nM.

As for `Cn1nc(C(F)F)cc1Nc1nncn1[C@H]1CCc2sc(NC(=O)[C@H]3CC34CC4)c(C(=O)NC3CC(F)(F)C3)c2C1` [Example 406, (5S)—N-(3,3-Difluorocyclobutyl)-5-[3-[[5-(difluoromethyl)-2-methylpyrazol-3-yl]amino]-1,2,4-triazol-4-yl]-2-[[(2S)-spiro[2.2]pentane-2-carbonyl]amino]-4,5,6,7-tetrahydro-1-benzothiophene-3-carboxamide], the 50% inhibitory concentration (IC50) is under 1000 nM. For the compound `Cn1nc(C(F)F)cc1Nc1nncn1[C@H]1CCc2sc(NC(=O)[C@H]3CC34CC4)c(C(=O)NCC3CC(F)(F)C3)c2C1` [Example 407, (5S)—N-[(3,3-Difluorocyclobutyl)methyl]-5-[3-[[5-(difluoromethyl)-2-methylpyrazol-3-yl]amino]-1,2,4-triazol-4-yl]-2-[[(2S)-spiro[2,2]pentane-2-carbonyl]amino]-4,5,6,7-tetrahydro-1-benzothiophene-3-carboxamide], the IC50 is under 1000 nM. For the compound `Cn1nc(C(F)F)cc1Nc1nncn1[C@H]1CCc2sc(NC(=O)[C@H]3CC34CC4)c(C(=O)NC[C@H]3C[C@H]3F)c2C1` [Example 412, (5S)-5-[3-[[5-(Difluoromethyl)-2-methylpyrazol-3-yl]amino]-1,2,4-triazol-4-yl]-N-[[(1R,2R)-2-fluorocyclopropyl]methyl]-2-[[(2S)-spiro[2.2]pentane-2-carbonyl]amino]-4,5,6,7-tetrahydro-1-benzothiophene-3-carboxamide], the IC50 is under 1000 nM.

In the case of `Cn1nc(C(F)F)cc1Nc1nncn1[C@H]1CCc2sc(NC(=O)[C@H]3CC34CC4)c(C(=O)NC[C@H]3C[C@@H]3F)c2C1` [Example 413, (5S)-5-[3-[[5-(Difluoromethyl)-2-methylpyrazol-3-yl]amino]-1,2,4-triazo-4-yl]-N-[[(1R,2S)-2-fluorocyclopropyl]methyl]-2-[[(25)-spiro[2.2]pentane-2-carbonyl]amino]-4,5,6,7-tetrahydro-1-benzothiophene-3-carboxamide], the IC50 is under 1000 nM. The result for `Cn1nc(C(F)F)cc1Nc1nncn1[C@H]1CCc2sc(NC(=O)[C@H]3CC34CC4)c(C(=O)N[C@H]3CC34CC4)c2C1` [Example 414, (5S)-5-[3-[[5-(difluoromethyl)-2-methyl-pyrazol-3-yl]amino]-1,2,4-triazol-4-yl]-2-[[(2S)-spiro[2.2]pentane-2-carbonyl]amino]-N-[(25)-spiro[2.2]pentan-2-yl]-4,5,6,7-tetrahydrobenzothiophene-3-carboxamide] reads under 1000 nM; that for `Cn1nc(C(F)F)cc1Nc1nncn1[C@H]1CCc2sc(NC(=O)[C@H]3CC34CC4)c(C(=O)N[C@@H]3CC34CC4)c2C1` [Example 415, (5S)-5-[3-[[5-(difluoromethyl)-2-methyl-pyrazol-3-yl]amino]-1,2,4-triazol-4-yl]-2-[[(2S)-spiro[2.2]pentane-2-carbonyl]amino]-N-[(2R)-spiro[2.2]pentan-2-yl]-4,5,6,7-tetrahydrobenzothiophene-3-carboxamide], under 1000 nM. In the case of `Cn1nc(C(F)F)cc1Nc1nncn1[C@H]1CCc2sc(NC(=O)[C@H]3CC34CC4)c(C(=O)NCC3CC3)c2C1` [Example 416, (5S)—N-(Cyclopropylmethyl)-5-[3-[[5-(difluoromethyl)-2-methyl-pyrazol-3-yl]amino]-1,2,4-triazol-4-yl]-2-[[(2S)-spiro[2.2]pentane-2-carbonyl]amino]-4,5,6,7-tetrahydrobenzothiophene-3-carboxamide] it was under 1000 nM; in that of `Cn1nc(C#N)cc1Nc1nncn1[C@H]1CCc2sc(NC(=O)C3CC3)c(C(=O)NCC3CC3)c2C1` [Example 418, (5S)-5-[3-[(5-Cyano-2-methyl-pyrazol-3-yl)amino]-1,2,4-triazol-4-yl]-2-(cyclopropanecarbonylamino)-N-(cyclopropylmethyl)-4,5,6,7-tetrahydrobenzothiophene-3-carboxamide], under 1000 nM; in that of `O=C(NCC1CC1)c1c(NC(=O)C2CC2)sc2c1C[C@@H](n1cnnc1Nc1ccc3c(c1)OC(F)(F)O3)CC2` [Example 419, (5S)-2-(Cyclopropanecarbonylamino)-N-(cyclopropylmethyl)-5-[3-[(2,2-difluoro-1,3-benzodioxol-5-yl)amino]-1,2,4-triazol-4-yl]-4,5,6,7-tetrahydrobenzothiophene-3-carboxamide], under 1000 nM. In the case of `Cn1nc(C(F)F)cc1Nc1nncn1[C@H]1CCc2sc(NC(=O)[C@H]3CC34CC4)c(C(=O)NC[C@@H]3C[C@@H]3F)c2C1` [Example 420, (5S)-5-[3-[[5-(Difluoromethyl)-2-methyl-pyrazol-3-yl]amino]-1,2,4-triazol-4-yl]-N-[[(1S,2S)-2-fluorocyclopropyl]methyl]-2-[[(2S)-spiro[2.2]pentane-2-carbonyl]amino]-4,5,6,7-tetrahydrobenzothiophene-3-carboxamide], the IC50 is under 1000 nM. In the case of `O=C(NCC1CC1)c1c(NC(=O)C2CC2)sc2c1C[C@@H](n1cnnc1Nc1ccc(C(F)F)nc1)CC2` [Example 423, (5S)-2-(cyclopropanecarbonylamino)-N-(cyclopropylmethyl)-5-[3-[[6-(difluoromethyl)-3-pyridyl]amino]-1,2,4-triazol-4-yl]-4,5,6,7-tetrahydrobenzothiophene-3-carboxamide] it was under 1000 nM; in that of `Cc1nc(F)ccc1Nc1nncn1[C@H]1CCc2sc(NC(=O)C3CC3)c(C(=O)NCC3CC3)c2C1` [Example 424, (5S)-2-(cyclopropanecarbonylamino)-N-(cyclopropylmethyl)-5-[3-[(6-fluoro-2-methyl-3-pyridyl)amino]-1,2,4-triazol-4-yl]-4,5,6,7-tetrahydrobenzothiophene-3-carboxamide], under 1000 nM. In the case of `Cn1nc(OC2CC2)cc1Nc1nncn1[C@H]1CCc2sc(NC(=O)[C@H]3C[C@@H]3F)c(C(=O)NCC3CC3)c2C1` [Example 425] it was under 1000 nM; in that of `Cn1nc(OCC(F)(F)F)cc1Nc1nncn1[C@H]1CCc2sc(NC(=O)[C@H]3C[C@@H]3F)c(C(=O)NCC3CC3)c2C1` [Example 426, (5S)—N-(cyclopropylmethyl)-2-[[(1R,2S)-2-fluorocyclopropanecarbonyl]amino]-5-[3-[[2-methyl-5-(2,2,2-trifluoroethoxy)pyrazol-3-yl]amino]-1,2,4-triazol-4-yl]-4,5,6,7-tetrahydrobenzothiophene-3-carboxamide], under 1000 nM; in that of `O=C(NCC1CC1)c1c(NC(=O)C2CC2)sc2c1C[C@@H](n1cnnc1Nc1ccc(C(F)(F)F)nc1)CC2` [Example 427, (5S)-2-(cyclopropanecarbonylamino)-N-(cyclopropylmethyl)-5-[3-[[6-(trifluoromethyl)-3-pyridyl]amino]-1,2,4-triazol-4-yl]-4,5,6,7-tetrahydrobenzothiophene-3-carboxamide], under 1000 nM. The result for `COc1ccc(Nc2nncn2[C@H]2CCc3sc(NC(=O)C4CC4)c(C(=O)NCC4CC4)c3C2)cn1` [Example 428, (5S)-2-(cyclopropanecarbonylamino)-N-(cyclopropylmethyl)-5-[3-[(6-methoxy-3-pyridyl)amino]-1,2,4-triazol-4-yl]-4,5,6,7-tetrahydrobenzothiophene-3-carboxamide] reads under 1000 nM.

The IC50 is the point on the concentration scale where inhibition reaches its midpoint.
